Test results published in US6740637B1, “Chlorophyll and bacteriochlorophyll derivatives, their preparation and pharmaceutical compositions comprising them” (priority 1998, dated 2004).

Legend:
[1] = tested on: M2R melanoma cells; test: PDT effect by clonogenic assay; assay type: cell-based, mouse
Description: The PDT effect was also determined by the clonogenic assay: 24 h after treatment of cells with various Chla-L-Ser-OMe concentrations and completion of the irradiation step, as described above (FIG. 12A), cultures were trypsinized and viable cell numbers determined by trypan blue exclusion. Appropriate dilutions were carried out and 250 cells/well were seeded into 6-well Costar plates. After 11-12 days in culture, the medium was aspirated and the colonies were fixed and stained with crystal violet in methanol and the number of colonies (more than 40 cells per colony) was counted under a dissecting microscope. […] Results are given as means±SD of triplicate determinations.

[2] = tested on: S. Aureus; assay type: cell-based, Staphylococcus Aureus
Description: 1. Preincubation: Bacteria or viruses were preincubated in the absence (untreated control) or presence of increasing concentration of photosensitizer for 1-2 h at room temperature or 37° C. in the dark.
2. Illumination: One set of untreated control and one set of sensitizer treated samples were exposed to light for 5-10 min. An identical group was kept in the dark (dark control).
3. Viability: samples of the controls and experimental groups were subjected for quantitation of survival and viability was calculated as per cent of untreated control.
The light source for illumination was a 250W halogen lamp. The light was focused on a glass support and filtered to eliminate light below 630 nm. The light intensity at the target level was 1500 μEinstein/cm^2. Illumination for Bchl-Ser against S. aureus was performed as described Example 17 herein.
Stocks of bacteria (S. aureus, B. subtilis, E. coli) were preserved on solid LB agar slants at 4° C. Two hours prior to the experiment, bacteria were transferred to liquid LB media and grown at 37° C. with continuous shaking. P. Acnes (ATCC-CR 6919) bacteria were grown on agar 1053 reinforced clostridial medium (Oxoid CM 149 ) and incubated at 37° C. […]
Aliquots (20 or 30 μl) of bacterial suspensions were plated on LB agar plates for 24 h at 37° C. […] Colonies were counted and per cent viability was calculated from untreated control. […]

[3] = tested on: C57Bl mice; test: Toxicity of serine conjugates in mice in the absence of irradiation; assay type: in vivo, mouse; details: injections of up to 40 mg/kg body weight, up to 14 days, no irradiation
Description: (d) Toxicity of the Chl and Bchl-serine conjugates Chla-L-Ser-OMe and Bchla-L-Ser-OMe in C57Bl mice under normal housing conditions in the absence of irradiation was estimated by injection of the compound dissolved in 10% ethanol/PBS. Control mice were injected with the vehicle only. […] This dose of drug was thus far the highest used and LD50 vs. EC50 of treatment (margins of therapeutic index) have yet to be determined.

[4] = tested on: Herpes simplex virus-1 (HSV-1) (in free suspension); test: PDT of HSV-1 in suspension, plaque assay; assay type: cell-based, Herpes simplex virus type 1
Description: For viral infection Vero cells (2×10^4/well) were cultured at 37° C. for 2 days in 24 well microplates. The culture medium was replaced with fresh medium containing 2% FBS and the cells infected with HSV-1 (200 μl) at multiplicity of infection (MOI) of 1-3. The cells were further incubated at 37° C. for 3 days. The medium was collected and centrifuged for 5 min in a clinical centrifuge to remove cells and cell debris. The concentration of viral particle was determined as described below and the suspension was aliquoted and kept at −80° C. until used.
Vero cells were inoculated with 10 fold dilutions of HSV-1 and cultured for 2 h at 37° C. The medium was then replaced with fresh DMEM containing 2% FBS and 0.7% methylcellulose and the cells were further incubated for 3 days. The overlayer was then decanted and the cells fixed and stained with crystal violet. Virus induced plaques were manually counted and plaque forming units (PFU/ml) were calculated.
HSV-1 suspended in culture medium to a concentration of 2×10^6 PFU/ml was dispensed (0.5 ml/well) into 24 well microplates and incubated in the dark for 1 h at 37° C. in the absence or presence of the indicated Chl-Ser concentrations. The experimental groups were then exposed to light for 10 min. The appropriate controls described above were included in each experiment. Viral survival was quantitated as described above.

[5] = tested on: M2R cells; assay type: cell-based, mouse
Description: Alternatively, photodynamic toxicity was determined by [^3H] thymidine incorporation. In this case, changes in rates of [^3H] thymidine incorporation following PDT were performed as follows: Cell cultures (4-5×10^4 cells/well in about 40-50% confluency grown in 10% fetal bovine serum) were pulsed with 1μ Ci/ml thymidine [methyl-^3H] for 2 h at 37° C. Cultures were then washed twice with cold phosphate-buffered saline (PBS), treated with 7.5% ice cold trichloroacetic acid (TCA) for 30 min at 4° C., washed 2 times with ethanol. Cells were then dissolved in 0.3 ml of 1 M NaOH at 37° C. for 15 min. Samples of 100 μl were neutralized with 100 μl of 1N HCI and 4 ml of 0.1 M imidazole and counted in a 20:8 (vol/vol) xylene scintillator/Lumax mixture. […] Results are given as means±SD of triplicate determinations.

Compound: C=Cc1c(C)c2cc3nc(c4c5[n-]c(cc6nc(cc1[n-]2)C(C)=C6CC)c(C)c5C(=O)[C@@H]4C(=O)OC)[C@@H](CCC(=O)OC[C@H](N)C(=O)OC)[C@@H]3C.[Mg+2] [Chla-L-Ser-OMe, L-seryl Methyl Ester Chlorophyllidea]
- number of surviving cells (colonies) without irradiation ([1]; dark): not in the dark
- number of surviving cells (colonies) after PDT ([1]; irradiated, colonies counted after 11-12 days): reduced the number of surviving cells in a dose dependent manner
- effect in dark [2]: neither light alone nor Chl-Ser in dark showed any effect
- effect on behavior and well being of mice [3]: no noticeable effect on the behavior and well being of the mice
- concentration of maximal toxicity [4]: > 20 nM
- EC50 ([4]; 1 h with Chl-Ser, light 10 min, read-out: half maximal dose of sensitizer): ~0.01 µM
- toxicity in the dark ([4]; tested concentration range, dark): not toxic in the dark
- [3H] thymidine incorporation without irradiation [5]: not observed in the dark controls
- [3H] thymidine incorporation after PDT ([5]; 60 min with increasing concentrations, light source B, 24 h later): dose dependent reduction in the ability of the cells to incorporate [^3H] thymidine
